In ChEMBL document CHEMBL5126508, “Therapeutic potential of quinazoline derivatives for Alzheimer's disease: A comprehensive review” (Eur J Med Chem, 2022):

Assays:
Acetylcholinesterase [1] = target: T1, Acetylcholinesterase (Electrophorus electricus, UniProt O42275); test: Inhibition of electric eel AChE using acetylthiocholine incubated for 30 mins by measuring hydrolysis of substrate by Ellman's method
Cholinesterase [2] = target: T2, Cholinesterase (Homo sapiens, UniProt P06276); test: Inhibition of BuChE (unknown origin)
T2 sequence (P06276 whole entry): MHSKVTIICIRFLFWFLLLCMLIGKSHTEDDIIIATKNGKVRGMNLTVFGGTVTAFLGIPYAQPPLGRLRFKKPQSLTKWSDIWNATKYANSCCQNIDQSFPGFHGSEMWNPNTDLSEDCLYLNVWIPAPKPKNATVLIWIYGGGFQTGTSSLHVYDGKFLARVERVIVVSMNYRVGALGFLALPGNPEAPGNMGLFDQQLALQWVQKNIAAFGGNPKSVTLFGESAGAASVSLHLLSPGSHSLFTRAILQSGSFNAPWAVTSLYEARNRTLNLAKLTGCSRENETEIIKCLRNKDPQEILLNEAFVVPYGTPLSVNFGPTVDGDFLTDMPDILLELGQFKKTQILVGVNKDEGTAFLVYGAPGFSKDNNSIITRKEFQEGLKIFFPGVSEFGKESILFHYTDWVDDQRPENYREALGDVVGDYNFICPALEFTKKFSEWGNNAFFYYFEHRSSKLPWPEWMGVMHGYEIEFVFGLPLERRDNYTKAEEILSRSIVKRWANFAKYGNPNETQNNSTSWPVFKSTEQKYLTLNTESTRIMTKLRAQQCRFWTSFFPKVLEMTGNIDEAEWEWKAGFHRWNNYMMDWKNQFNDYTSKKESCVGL

Acetylcholinesterase [3] = target: T3, Acetylcholinesterase (Homo sapiens, UniProt P22303); test: Inhibition of AChE (unknown origin) by Ellman's method
T3 sequence (P22303 whole entry): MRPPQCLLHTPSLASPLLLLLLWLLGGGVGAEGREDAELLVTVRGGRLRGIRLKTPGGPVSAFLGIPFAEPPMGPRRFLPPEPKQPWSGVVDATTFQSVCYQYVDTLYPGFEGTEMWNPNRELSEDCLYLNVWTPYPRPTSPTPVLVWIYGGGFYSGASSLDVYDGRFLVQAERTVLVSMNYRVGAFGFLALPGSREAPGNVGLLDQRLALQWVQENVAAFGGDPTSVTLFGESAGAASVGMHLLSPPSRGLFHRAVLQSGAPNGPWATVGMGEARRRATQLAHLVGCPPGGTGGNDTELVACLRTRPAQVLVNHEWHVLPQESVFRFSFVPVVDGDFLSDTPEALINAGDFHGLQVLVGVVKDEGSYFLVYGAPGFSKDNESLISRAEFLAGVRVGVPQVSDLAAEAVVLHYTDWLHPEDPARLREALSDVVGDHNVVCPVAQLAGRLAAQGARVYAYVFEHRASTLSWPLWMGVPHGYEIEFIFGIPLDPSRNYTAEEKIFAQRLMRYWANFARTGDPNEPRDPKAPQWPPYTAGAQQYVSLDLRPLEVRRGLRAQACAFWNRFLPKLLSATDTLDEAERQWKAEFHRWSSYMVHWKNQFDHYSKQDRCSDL

Cholinesterase [4] = target: T2, Cholinesterase; test: Inhibition of BuChE (unknown origin) by Ellman's method
[5] = target: T4, Amine oxidase [flavin-containing] A (Homo sapiens, UniProt P21397); test: Inhibition of MAO-A (unknown origin)
T4 sequence (P21397 whole entry): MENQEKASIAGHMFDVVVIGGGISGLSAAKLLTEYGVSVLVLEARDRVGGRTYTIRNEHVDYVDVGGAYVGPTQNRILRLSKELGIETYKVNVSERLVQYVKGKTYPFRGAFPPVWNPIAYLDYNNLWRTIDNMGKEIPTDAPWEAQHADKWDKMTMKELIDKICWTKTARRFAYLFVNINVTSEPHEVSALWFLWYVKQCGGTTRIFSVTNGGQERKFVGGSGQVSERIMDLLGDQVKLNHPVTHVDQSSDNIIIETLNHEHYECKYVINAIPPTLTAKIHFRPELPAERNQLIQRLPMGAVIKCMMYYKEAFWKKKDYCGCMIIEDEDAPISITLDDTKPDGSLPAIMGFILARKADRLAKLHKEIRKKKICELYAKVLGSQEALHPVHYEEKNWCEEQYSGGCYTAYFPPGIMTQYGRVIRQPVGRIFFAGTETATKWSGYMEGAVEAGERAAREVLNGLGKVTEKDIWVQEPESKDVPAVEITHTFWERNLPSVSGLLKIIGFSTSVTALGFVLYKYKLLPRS

[6] = target: T5, Amyloid-beta precursor protein (Homo sapiens, UniProt P05067); test: Inhibition of amyloid beta 1 to 42 (unknown origin) […]
T5 sequence (P05067 whole entry): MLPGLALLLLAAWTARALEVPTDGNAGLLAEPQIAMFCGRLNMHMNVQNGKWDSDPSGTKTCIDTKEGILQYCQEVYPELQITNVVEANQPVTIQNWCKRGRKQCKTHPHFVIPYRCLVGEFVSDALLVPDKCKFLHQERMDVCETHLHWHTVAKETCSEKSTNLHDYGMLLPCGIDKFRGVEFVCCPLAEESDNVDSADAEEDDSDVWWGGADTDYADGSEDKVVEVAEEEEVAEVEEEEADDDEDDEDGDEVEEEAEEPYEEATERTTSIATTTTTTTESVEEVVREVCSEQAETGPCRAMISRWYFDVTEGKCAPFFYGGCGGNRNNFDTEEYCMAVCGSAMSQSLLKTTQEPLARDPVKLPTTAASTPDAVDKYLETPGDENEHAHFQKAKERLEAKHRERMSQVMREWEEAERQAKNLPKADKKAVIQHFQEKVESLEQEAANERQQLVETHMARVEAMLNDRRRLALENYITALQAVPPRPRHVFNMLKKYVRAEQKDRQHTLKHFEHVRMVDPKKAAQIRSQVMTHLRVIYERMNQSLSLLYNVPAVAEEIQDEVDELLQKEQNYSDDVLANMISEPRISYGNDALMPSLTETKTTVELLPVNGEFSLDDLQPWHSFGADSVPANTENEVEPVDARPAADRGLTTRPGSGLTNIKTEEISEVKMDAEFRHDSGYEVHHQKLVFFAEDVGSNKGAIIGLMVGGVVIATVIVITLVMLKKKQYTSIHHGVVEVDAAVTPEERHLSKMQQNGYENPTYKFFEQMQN

Cholinesterase [7] = target: Cholinesterase (Equus caballus, UniProt P81908); test: Inhibition of equine serum BuChE
Sequence of Cholinesterase (Equus caballus, UniProt P81908) (P81908 whole entry): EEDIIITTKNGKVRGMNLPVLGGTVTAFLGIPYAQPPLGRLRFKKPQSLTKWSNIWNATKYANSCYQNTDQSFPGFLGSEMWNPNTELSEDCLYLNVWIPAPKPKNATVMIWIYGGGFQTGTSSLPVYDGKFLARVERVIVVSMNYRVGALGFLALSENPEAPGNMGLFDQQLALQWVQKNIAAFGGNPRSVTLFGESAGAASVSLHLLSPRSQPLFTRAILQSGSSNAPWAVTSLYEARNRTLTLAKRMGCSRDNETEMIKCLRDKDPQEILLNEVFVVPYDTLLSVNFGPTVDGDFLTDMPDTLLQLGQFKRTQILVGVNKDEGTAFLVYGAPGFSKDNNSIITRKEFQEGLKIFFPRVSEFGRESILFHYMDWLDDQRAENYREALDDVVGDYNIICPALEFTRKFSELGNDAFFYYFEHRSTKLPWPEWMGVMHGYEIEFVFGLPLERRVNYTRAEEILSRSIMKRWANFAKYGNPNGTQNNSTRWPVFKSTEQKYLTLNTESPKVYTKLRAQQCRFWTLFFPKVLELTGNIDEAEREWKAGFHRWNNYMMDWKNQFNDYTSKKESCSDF

[8] = Ratio of IC50 for equine BuChE to IC50 for electric eel AChE
Acetylcholinesterase [9] = target: T1, Acetylcholinesterase; test: Inhibition of electric eel AChE
Acetylcholinesterase [10] = target: T3, Acetylcholinesterase; test: Inhibition of human AChE
[11] = Antioxidant activity assessed as radical scavenging at 100 ug/ml by DPPH assay relative to control; assay type: functional
Acetylcholinesterase [12] = target: T3, Acetylcholinesterase; test: Inhibition of AChE (unknown origin)
[13] = target: Cyclin-dependent kinase 1 (Homo sapiens, UniProt P06493); test: Inhibition of CDK1 (unknown origin)
Sequence of Cyclin-dependent kinase 1 (P06493 whole entry): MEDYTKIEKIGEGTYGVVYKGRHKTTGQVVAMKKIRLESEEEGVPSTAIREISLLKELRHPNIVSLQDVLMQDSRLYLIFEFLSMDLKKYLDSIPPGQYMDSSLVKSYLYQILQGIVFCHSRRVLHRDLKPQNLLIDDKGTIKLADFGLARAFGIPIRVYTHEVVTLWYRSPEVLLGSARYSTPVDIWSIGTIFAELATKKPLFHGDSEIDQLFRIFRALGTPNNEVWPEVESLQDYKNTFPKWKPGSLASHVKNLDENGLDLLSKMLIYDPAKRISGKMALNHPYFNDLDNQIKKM

[14] = target: Glycogen synthase kinase-3 (Homo sapiens, UniProt P49840+P49841); test: Inhibition of GSK3alpha/beta (unknown origin); assay type: protein assay
[15] = target: Cyclin-dependent kinase 5 (Homo sapiens, UniProt Q00535); test: Inhibition of CDK5 (unknown origin)
Sequence of Cyclin-dependent kinase 5 (Q00535 whole entry): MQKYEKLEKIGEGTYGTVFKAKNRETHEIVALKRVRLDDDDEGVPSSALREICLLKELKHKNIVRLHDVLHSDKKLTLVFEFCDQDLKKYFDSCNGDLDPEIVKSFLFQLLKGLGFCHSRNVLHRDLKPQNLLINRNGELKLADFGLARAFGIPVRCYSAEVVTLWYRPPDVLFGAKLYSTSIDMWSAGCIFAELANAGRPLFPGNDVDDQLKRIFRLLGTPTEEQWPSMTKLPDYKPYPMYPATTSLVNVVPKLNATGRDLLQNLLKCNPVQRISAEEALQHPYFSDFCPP

[16] = Inhibition of PDE7 (unknown origin); parameters: species or system Homo sapiens
[17] = Inhibition of Kainate receptor (unknown origin); parameters: species or system Homo sapiens
SH-SY5Y = test: Cytotoxicity against human SH-SY5Y cells assessed as cell viability at 100 uM relative to control; assay type: functional; conditions: read-out: Activity
[18] = target: T6, Amine oxidase [flavin-containing] B (Homo sapiens, UniProt P27338); test: Inhibition of MAO-B (unknown origin)
T6 sequence (P27338 whole entry): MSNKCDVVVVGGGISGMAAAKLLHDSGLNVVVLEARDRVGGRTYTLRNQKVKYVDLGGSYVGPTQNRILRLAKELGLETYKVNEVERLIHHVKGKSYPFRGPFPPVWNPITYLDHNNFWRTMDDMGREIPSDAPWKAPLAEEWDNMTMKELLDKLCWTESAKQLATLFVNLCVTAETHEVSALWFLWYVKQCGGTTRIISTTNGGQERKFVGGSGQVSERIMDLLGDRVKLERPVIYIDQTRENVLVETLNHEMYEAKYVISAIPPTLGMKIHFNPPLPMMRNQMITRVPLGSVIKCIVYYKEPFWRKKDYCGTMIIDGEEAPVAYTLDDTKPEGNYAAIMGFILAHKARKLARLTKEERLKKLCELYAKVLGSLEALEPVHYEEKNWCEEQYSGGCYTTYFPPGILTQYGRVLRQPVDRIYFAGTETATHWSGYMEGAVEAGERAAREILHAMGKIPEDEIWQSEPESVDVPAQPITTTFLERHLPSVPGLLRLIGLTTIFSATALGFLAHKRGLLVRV

[19] = target: T5, Amyloid-beta precursor protein; test: Inhibition of amyloid beta 1 to 42 aggregation in human SH-SY5Y cells; assay type: cell-based
[20] = target: T5, Amyloid-beta precursor protein; test: Inhibition of amyloid beta 1 to 40 aggregation in human SH-SY5Y cells; assay type: cell-based
Cholinesterase [21] = target: T2, Cholinesterase; test: Inhibition of BuChE (unknown origin) at 100 uM relative to control
Acetylcholinesterase [22] = target: T1, Acetylcholinesterase; test: Inhibition of electric eel AChE incubated for 25 mins by Ellman's method

T1 sequence (O42275 whole entry): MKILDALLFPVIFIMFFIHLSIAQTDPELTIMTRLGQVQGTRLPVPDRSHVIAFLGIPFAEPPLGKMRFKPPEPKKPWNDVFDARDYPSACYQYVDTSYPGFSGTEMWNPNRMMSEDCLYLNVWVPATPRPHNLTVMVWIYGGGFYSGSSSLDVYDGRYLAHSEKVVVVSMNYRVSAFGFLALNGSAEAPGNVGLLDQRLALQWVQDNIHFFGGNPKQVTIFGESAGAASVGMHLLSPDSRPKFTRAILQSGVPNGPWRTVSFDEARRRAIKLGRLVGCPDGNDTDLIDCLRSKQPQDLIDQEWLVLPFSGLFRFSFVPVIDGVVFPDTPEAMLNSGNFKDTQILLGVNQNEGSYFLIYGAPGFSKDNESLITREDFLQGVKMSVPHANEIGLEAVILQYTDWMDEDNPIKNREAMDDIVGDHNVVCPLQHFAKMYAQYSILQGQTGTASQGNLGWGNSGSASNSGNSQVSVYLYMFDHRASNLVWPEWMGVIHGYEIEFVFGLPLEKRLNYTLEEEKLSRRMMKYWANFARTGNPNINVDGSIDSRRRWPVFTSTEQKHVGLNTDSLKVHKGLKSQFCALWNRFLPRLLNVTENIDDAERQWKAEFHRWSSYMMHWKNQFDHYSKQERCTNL

## CC1(c2ccc(Cl)cc2)Nc2cc(Cl)ccc2-c2ccnn21 (centres undefined)
Acetylcholinesterase [1]
  IC50: 358 µM
Cholinesterase [2]
  IC50: > 379 µM

## COc1cc2c(Nc3ccc(C(=O)/C=C/c4nc(C)c(C)nc4C)cc3)ncnc2c(OC)c1OC
Acetylcholinesterase [3]
  IC50: 0.1 µM
Cholinesterase [4]
  IC50: 22.4 µM
[5]
  IC50: 47.4 µM
[6]
  IC50: 26.7 µM

## c1cc2c(cc1OCCCN1CCCCC1)CN1CCCCC1=N2
Cholinesterase [7]
  IC50: 0.00655 µM
[8]
  Ratio IC50: 0.197
Acetylcholinesterase [9]
  IC50: 0.0333 µM
Acetylcholinesterase [10]
  IC50: 0.225 µM

## c1ccc2c(c1)CCCN1Cc3cc(OCCCN4CCCCC4)ccc3N=C21
Cholinesterase [7]
  IC50: 2.67 µM
[8]
  Ratio IC50: 47
Acetylcholinesterase [9]
  IC50: 0.0571 µM
Acetylcholinesterase [10]
  IC50: 0.535 µM

## CSc1nc2nc(NNC(=S)NC3CCCCC3)c3ccccc3n2n1
[11]
  inhibition: 91.2%

## CN1C(=O)C2(Nc3cc(Cl)ccc3-c3ccnn32)c2cc(Cl)ccc21 (centres undefined)
Acetylcholinesterase [1]
  IC50: 88.2 µM
Cholinesterase [2]
  IC50: 219 µM

## CSc1nc2nc(NN)c3ccccc3n2n1
[11]
  inhibition: 85.9%

## O=c1c2ccccc2nc2n1CCC2O (centres undefined)
Cholinesterase [2]
  IC50: 10.2 µM
Acetylcholinesterase [12]
  IC50: 76.6 µM

## c1ccc2c(c1)CCN1Cc3cc(OCCCN4CCCCC4)ccc3N=C21
Cholinesterase [7]
  IC50: 0.955 µM
[8]
  Ratio IC50: 174
Acetylcholinesterase [9]
  IC50: 0.0055 µM
Acetylcholinesterase [10]
  IC50: 0.216 µM

## COC(=N)c1nc2ccc3ncnc(Nc4ccc5c(c4)OCO5)c3c2s1
[13]
  IC50: > 10 µM
[14]
  IC50: 0.66 µM
[15]
  IC50: > 10 µM

## O=c1c2cccc(Cl)c2[nH]c(=S)n1-c1c(F)cccc1F
[16]
  IC50: 6.1 µM

## O=C(O)c1cc2c3cc(-n4cnnc4)c(Cl)cc3[nH]c(=O)n2n1
[17]
  IC50: 5.5 µM

## O=c1c2ccccc2nc2n1C(c1cncc3[nH]c4ccccc4c13)CC2O (centres undefined)
Cholinesterase [2]
  IC50: 18.2 µM
Acetylcholinesterase [12]
  IC50: 70.5 µM

## O=c1c2ccccc2nc2n1CCC2 [DEOXYVASICINONE]
Cholinesterase [2]
  IC50: 17.8 µM
Acetylcholinesterase [12]
  IC50: 35.2 µM

## O=C(NCCc1ccc(O)cc1)C1CCC2=Nc3ccc(Br)cc3CN21 (centres undefined)
SH-SY5Y
  viability at 100 µM: 78.6%

## Cn1c(N/N=C(\C=C\c2cccc(Cl)c2)c2ccccc2)nc2ccccc2c1=O
[5]
  IC50: 468 µM
[18]
  IC50: 1.15 µM

## COc1cc(/C=C/c2nc3cc(Cl)ccc3c(=O)[nH]2)ccc1-n1cnc(C)c1
[19]
  IC50: 0.66 µM
[20]
  IC50: > 10 µM

## O=C(CCN1CCCCC1)Nc1ccc2nc(-c3cc4ccccc4[nH]3)[nH]c(=O)c2c1
Cholinesterase [2]
  IC50: 7.32 µM

## O=C(O)C1=Nc2ccccc2CN1
Cholinesterase [2]
  IC50: > 1000 µM
Acetylcholinesterase [12]
  IC50: 345 µM

## COC(=N)c1nc2ccc3ncnc(Nc4ccc(OC)cc4)c3c2s1
[13]
  IC50: > 10 µM
[14]
  IC50: 0.2 µM
[15]
  IC50: > 10 µM

## c1cc2c(cc1OCCCN1CCCCC1)CN1CCCCCC1=N2
Cholinesterase [7]
  IC50: 0.0127 µM
[8]
  Ratio IC50: 0.296
Acetylcholinesterase [9]
  IC50: 0.043 µM
Acetylcholinesterase [10]
  IC50: 0.82 µM

## c1ccc2c(c1)CN1Cc3cc(OCCCN4CCCCC4)ccc3N=C21
Cholinesterase [7]
  IC50: 4.14 µM
[8]
  Ratio IC50: 600
Acetylcholinesterase [9]
  IC50: 0.0069 µM
Acetylcholinesterase [10]
  IC50: 0.142 µM

## Cc1ccccc1-n1c(SCC(=O)N/N=C/c2ccc(Br)cc2)nc2ccccc2c1=O
Cholinesterase [21]
  inhibition: 6.8%
Acetylcholinesterase [22]
  IC50: 210 µM
